Where “and” joins values, the source holds several entries; their conditions need not be identical. Identical values can stand only once. Like-named read-outs stand apart in the source and are kept apart here. Ends that are not written are not given here. * marks the point of attachment. Biotin = O=C1N[C@H]2[C@H](CS[C@H]2CCCCC(=O)*)N1
Columns and labels:
antibodies to C. abortus = assay: ELISA, serological reactivity of biotinylated peptides against serum dilutions (Tables 1 and 2); assay type: binding, sheep
Description: (§1) Application of the peptide mixture is performed as follows:
(§2) Two dilutions of standard serum are used.
The data illustrate that the length of compound has a major impact on serological reactivity.
Thus, substitutions within the core epitopes described in this invention are possible without too much loss in compound serological reactivity.

[1] = tested on: sera from sheep free of infection with C. abortus
Description: In the Applicant's experience at least two different forms of microtitration plates may be used. One form uses tresyl-activated dextran, which is applied to the polystyrene plate and forms a layer between the plate and the peptide (Gregorius et al., 1995). The commercially available plates (‘Aquabind™’) are produced by M&E, Denmark and marketed in the UK through Labsystems by Life Sciences. […] The second form of plate is one modified by coating with streptavidin. Such plates are commercially available e.g. Labsystems, Pierce and Warriner. […] The preferred microtitration plate types used to bind streptavidin are those modified to provide high protein binding e.g. Dynex Immulon 2, Greiner High Bind. To each well is added streptavidin in 150 μl volumes. The plates are incubated, preferably for 2 hours at 35-37° C., then the contents ejected and the plates washed 3 times with PBS buffer, pH 7.4 (Appendix). The plates are thoroughly dried and stored at 4° C. until required. Application of the peptide mixture is performed as follows:
The stock solutions (1 mg per ml) of the selected peptides are diluted in the same volume of carbonate-bicarbonate buffer, pH 9.6, to their optimum concentration. […] The peptide mixture solution is added in volumes of 150 μl per well. In a ‘controlled’ test, the peptide mixture is added to all wells in even numbered columns, while carbonate-bicarbonate buffer is added to all wells in odd-numbered columns in the same volume per well. In ‘screen’ tests, where control wells are not used for each sample, the peptide mixture is added to all 96 wells on the plate. The plates are incubated, preferably at 4° C. for 4 to 12 hours, then washed 4 times with PBS/Tween buffer (Appendix) and thoroughly dried, preferably for 4 hours in a fan-driven cabinet. The coated plates are placed in watertight bags with a desiccant, and the bags sealed and stored at 4° C. until required.
Two dilutions of standard serum are used. One, employed at a dilution of 1 in 1000, is used to indicate successful performance of the test (‘standard positive’). […] In the kits, the positive and cut-off standards are provided pre-diluted to working strength in a proprietary stabilisation buffer (Dako) which contains a preservative (ProClin 300; Supelco; used at 1 in 2000), and are not diluted further before addition to the test plate.
The test serum samples are diluted 1:100 in Serum Conjugate Diluent (Appendix). The test kits provide a Diluter plate, which has very low protein binding properties. By adding 15 μl of serum to 135 μl of Serum Conjugate Diluent on the Diluter plate, an initial 1 in 10 dilution is achieved. Transfer of 15 μl from the Diluter plate to 135 μl of Serum Conjugate Diluent dispensed into each well in the test plate enables a further dilution to 1 in 100 (from the original sample) on the test plate. […] Dilution of sera can also be performed, if preferred, in bijoux or tubes before their addition in 150 μl volumes to the Test plate.
Test and standard sera are incubated on the Test plate for 15 min at room temperature (˜20° C.), then 30 min at 37° C. Plate contents are then ejected and the plate washed 4 times with PBS/Tween (Appendix) and dried.
A probe to detect the presence of immunoglobulin, to which is conjugated an enzyme (the ‘conjugate’), is then added. Preferably, the probe constitutes Protein G (recombinant form, in which the moiety that binds to albumin has been eliminated; available from Sigma and Calbiochem) conjugated with horse radish peroxidase, but many forms of conjugate are available. These include, as probes, Protein A; and monoclonal or polyclonal antibodies against the immunoglobulins of the species providing the test sample.

[2] = tested on: sera from ewes known not to have been infected with C. abortus; SPF lamb antisera; assay: ELISA, specificity of peptides with sera from uninfected ewes and SPF lamb antisera (first Table 4); assay type: binding, sheep; design: reactivity with serum (quantity not given): unit not given here
Description: as §1, §2
Specificities of Peptides 2-9,2-10, 1B, 1A/1A and 4B/4B as tested with sera from ewes known not to have been infected with C. abortus, and which had shown positive reactivity in previous tests with various forms of VS 1 and VS2.

[3] = PS (Positive Control Serum) 1/1000
[4] = PS (Positive Control Serum) 1/15000

Biotin-KKKKKKKKKKKGSSIAAD [Compound 2-3]
Net Optical Density (antibodies to C. abortus; serum dilution 1/100): 2.075
Net Optical Density (antibodies to C. abortus; serum dilution 1/200): 1.133
Net Optical Density (antibodies to C. abortus; serum dilution 1/400): 0.540
Net Optical Density (antibodies to C. abortus; serum dilution 1/800): 0.214
Net Optical Density (antibodies to C. abortus; serum dilution 1/1600): 0.095
Net Optical Density (antibodies to C. abortus; serum dilution 1/3200): 0.031
Net Optical Density (antibodies to C. abortus; serum dilution 1/6400): 0.007

Biotin-KKKKKGLIGVKGSSIAAD [Compound 2-5]
Net Optical Density (antibodies to C. abortus; serum dilution 1/100): 2.344
Net Optical Density (antibodies to C. abortus; serum dilution 1/200): 1/468 and 1.468
Net Optical Density (antibodies to C. abortus; serum dilution 1/400): 0.771
Net Optical Density (antibodies to C. abortus; serum dilution 1/800): 0.358
Net Optical Density (antibodies to C. abortus; serum dilution 1/1600): 0.156
Net Optical Density (antibodies to C. abortus; serum dilution 1/3200): 0.066
Net Optical Density (antibodies to C. abortus; serum dilution 1/6400): 0.036

Biotin-KTITGMGAVPTGTAAANYKT [Compound 1/AX]
Net OD [Gross OD - No compound OD] [1, 3]: 3.690
Net OD [Gross OD - No compound OD] [1, 4]: 0.493
Net OD [Gross OD - No compound OD] ([1]; serum of Animal No. 14, sheep free of infection with C. abortus): 0.511

Biotin-KTITGKKKKGTAAANYKTPTD [Compound 1-6]
Net OD [Gross OD - No compound OD] [1, 3]: 3.352
Net OD [Gross OD - No compound OD] [1, 4]: 0.354
Net OD [Gross OD - No compound OD] ([1]; serum of Animal No. 19, sheep free of infection with C. abortus): 1.316
Net OD [Gross OD - No compound OD] ([1]; serum of Animal No. 28, sheep free of infection with C. abortus): 0.114
Net OD [Gross OD - No compound OD] ([1]; serum of Animal No. 31, sheep free of infection with C. abortus): 0.636
Net OD [Gross OD - No compound OD] ([1]; serum of Animal No. 36, sheep free of infection with C. abortus): 0.500
Net OD [Gross OD - No compound OD] ([1]; serum of Animal No. 37, sheep free of infection with C. abortus): 0.344

Biotin-KKKKKGLIGVKGSS L AAD [Compound 2-11]
effect of substituting isoleucine with leucine within Epitope 2 on reactivity (antibodies to C. abortus; 2-9 compared with 2-3, 2-11 compared with 2-5): small decrease in reactivity
Net Optical Density (antibodies to C. abortus; serum dilution 1/100): 2.008
Net Optical Density (antibodies to C. abortus; serum dilution 1/200): 1.230
Net Optical Density (antibodies to C. abortus; serum dilution 1/400): 0.637
Net Optical Density (antibodies to C. abortus; serum dilution 1/800): 0.299
Net Optical Density (antibodies to C. abortus; serum dilution 1/1600): 0.133
Net Optical Density (antibodies to C. abortus; serum dilution 1/3200): 0.053
Net Optical Density (antibodies to C. abortus; serum dilution 1/6400): 0.026

ATALDTSNKFATALDTSNKFA (ATALDTSNKFATALDTSNKFA) [Compound 4B/4B]
reactivity with serum (quantity not given) ([2]; SPF lamb antiserum 2406/2 C.ab, vaccinated with 28/68 (C. abortus)): OVER
reactivity with serum (quantity not given) ([2]; SPF lamb antiserum 2407/2 W73, vaccinated with W73 (C. pecorum)): 0.8
reactivity with serum (quantity not given) ([2]; SPF lamb antiserum F1/2 S45, vaccinated with S45 (C. suis)): 1.2
reactivity with serum (quantity not given) ([2]; SPF lamb antiserum F6/2 Cap.ab, vaccinated with Cap. abortion 15 (C. abortus)): 0.7
reactivity with serum (quantity not given) ([2]; SPF lamb antiserum F8/2 P787, vaccinated with P787 (C. pecorum)): 0.4
reactivity with serum (quantity not given) ([2]; SPF lamb serum 2397/1, pre-vaccination): 0.8
reactivity with serum (quantity not given) ([2]; SPF lamb serum F1/1, pre-vaccination): 0.5
reactivity with serum (quantity not given) ([2]; serum of animal no. 3178): 0.6
reactivity with serum (quantity not given) ([2]; serum of animal no. 3201): 1.7
reactivity with serum (quantity not given) ([2]; serum of animal no. A2213): OVER
reactivity with serum (quantity not given) ([2]; serum of animal no. A2261): 0.4
reactivity with serum (quantity not given) ([2]; serum of animal no. B2123): 0.4
reactivity with serum (quantity not given) ([2]; serum of animal no. X2895): 0.5
reactivity with serum (quantity not given) ([2]; serum of animal no. X2899): 0.4
reactivity with serum (quantity not given) ([2]; serum of animal no. Z148): 0.7
reactivity with serum (quantity not given) ([2]; serum of animal no. Z2618): 0.55
reactivity with serum (quantity not given) ([2]; serum of animal no. Z2646): 1.0
reactivity with serum (quantity not given) ([2]; serum of animal no. Z2739): 0.4

Source: US20030186887A1, “Compounds for detection of infection by chlamydophila abortus” (priority 2000, published 2003)
